Reference: ChEMBL document CHEMBL3039007, “Structure-based identification of OATP1B1/3 inhibitors” (Mol Pharmacol, 2013)

Columns and labels:
[1] = molecular target: T1, Solute carrier organic anion transporter family member 1B1 (Homo sapiens, UniProt Q9Y6L6)
T1 sequence (Q9Y6L6 whole entry): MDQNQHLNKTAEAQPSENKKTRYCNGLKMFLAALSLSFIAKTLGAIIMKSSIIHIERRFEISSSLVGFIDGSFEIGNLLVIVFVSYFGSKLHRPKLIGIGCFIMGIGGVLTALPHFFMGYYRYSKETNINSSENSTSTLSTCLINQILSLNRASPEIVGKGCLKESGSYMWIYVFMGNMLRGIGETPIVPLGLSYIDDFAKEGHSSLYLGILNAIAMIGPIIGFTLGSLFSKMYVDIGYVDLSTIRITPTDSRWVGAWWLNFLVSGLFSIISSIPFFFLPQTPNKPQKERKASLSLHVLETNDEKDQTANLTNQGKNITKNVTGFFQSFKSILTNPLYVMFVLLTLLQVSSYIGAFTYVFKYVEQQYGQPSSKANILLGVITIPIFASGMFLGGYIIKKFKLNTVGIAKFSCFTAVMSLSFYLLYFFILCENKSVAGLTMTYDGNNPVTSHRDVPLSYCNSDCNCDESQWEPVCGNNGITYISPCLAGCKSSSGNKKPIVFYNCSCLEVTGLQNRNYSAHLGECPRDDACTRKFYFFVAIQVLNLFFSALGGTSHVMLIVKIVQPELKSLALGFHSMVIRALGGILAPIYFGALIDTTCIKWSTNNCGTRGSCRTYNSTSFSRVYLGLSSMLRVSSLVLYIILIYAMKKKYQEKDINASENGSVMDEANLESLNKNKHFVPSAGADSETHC

[2] = molecular target: T1, Solute carrier organic anion transporter family member 1B1; remark: listed apart in the source
[3] = molecular target: T2, Solute carrier organic anion transporter family member 1B3 (Homo sapiens, UniProt Q9NPD5)
T2 sequence (Q9NPD5 whole entry): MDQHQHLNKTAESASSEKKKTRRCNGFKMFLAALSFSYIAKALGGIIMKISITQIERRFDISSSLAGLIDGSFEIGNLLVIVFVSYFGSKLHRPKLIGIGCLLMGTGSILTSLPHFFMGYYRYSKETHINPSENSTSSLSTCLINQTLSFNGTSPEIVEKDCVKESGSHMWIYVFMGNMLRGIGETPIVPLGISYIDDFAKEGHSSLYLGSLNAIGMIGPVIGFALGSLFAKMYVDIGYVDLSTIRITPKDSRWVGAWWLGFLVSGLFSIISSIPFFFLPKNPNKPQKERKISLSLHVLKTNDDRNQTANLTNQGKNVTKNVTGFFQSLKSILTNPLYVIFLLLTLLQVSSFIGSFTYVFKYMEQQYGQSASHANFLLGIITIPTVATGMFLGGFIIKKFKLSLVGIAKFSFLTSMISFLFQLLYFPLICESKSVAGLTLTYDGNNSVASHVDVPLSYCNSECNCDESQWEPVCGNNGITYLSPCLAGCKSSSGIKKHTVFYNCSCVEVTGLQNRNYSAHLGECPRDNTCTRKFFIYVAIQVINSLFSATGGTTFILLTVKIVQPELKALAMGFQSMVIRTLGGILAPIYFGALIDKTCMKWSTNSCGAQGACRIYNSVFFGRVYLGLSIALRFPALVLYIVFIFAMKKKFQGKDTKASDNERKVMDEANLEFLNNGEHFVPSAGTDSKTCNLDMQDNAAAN

[4] = molecular target: T2, Solute carrier organic anion transporter family member 1B3; remark: listed apart in the source
[5] = molecular target: T1, Solute carrier organic anion transporter family member 1B1; conditions: chinese hamster, cho, 10 µM
[6] = molecular target: T2, Solute carrier organic anion transporter family member 1B3; conditions: chinese hamster, cho, 10 µM

Row | Compound | IC50 [1] [nM] | Ki [2] [nM] | IC50 [3] [nM] | Ki [4] [nM] | residual activity [5] [%] | residual activity [6] [%]
1 | O=C(OC[C@H]1O[C@@H](OC(=O)c2cc(O)c(O)c(OC(=O)c3cc(O)c(O)c(O)c3)c2)[C@H](OC(=O)c2cc(O)c(O)c(OC(=O)c3cc(O)c(O)c(O)c3)c2)[C@@H](OC(=O)c2cc(O)c(O)c(OC(=O)c3cc(O)c(O)c(O)c3)c2)[C@@H]1OC(=O)c1cc(O)c(O)c(OC(=O)c2cc(O)c(O)c(O)c2)c1)c1cc(O)c(O)c(OC(=O)c2cc(O)c(O)c(O)c2)c1 [TANNIC ACID] | 2630 | 1460 | 4170 | 3230 | 18.66 | 10.59
2 | C[C@H]1CC[C@@]2(OC1)O[C@H]1C[C@H]3[C@@H]4CC[C@@H]5C[C@@H](O)CC[C@]5(C)[C@H]4CC[C@]3(C)[C@H]1[C@@H]2C [SARSASAPOGENIN] | 245 | 130 | 105 | 80 | 50.78 | 25.69
3 | CC(C)=CCCC1(C)C=Cc2c(O)c3c(c(CC=C(C)C)c2O1)OC12C(=CC4CC1C(C)(C)OC2(C/C=C(/C)C(=O)O)C4O)C3=O (stereo unspecified) [DIHYDROGAMBOGIC ACID] | 2240 | 1230 | 2880 | 2240 | 14.23 | 17.26
4 | C=C1[C@@H]([C@@]2(C)[C@@H](OC(C)=O)CC(=O)O[C@](C)(COC(C)=O)[C@@H]2C(=O)OC)[C@@H](OC=O)[C@H](OC(=O)[C@H](O)[C@H](C)CC)[C@@]2(C)[C@H](c3ccoc3)CC(=O)[C@]12O [PRIEURIANIN] | 2340 | 1280 | 3390 | 2630 | 22.79 | 25.49
5 | COC(=O)c1c(OC)cc2c(c1C)Oc1c(Cl)c(O)c(Cl)c(C)c1C(=O)O2 [GANGALEOIDIN] | 102 | 60 | 2630 | 2020 | 4.093 | 15.01
6 | CC(=O)O[C@@H]1C[C@@H]2C(C)(C)C(=O)C=C[C@@]2(C)[C@@H]2CC[C@@]3(C)C(=CC(=O)O[C@@H]3c3ccoc3)[C@@]12C | 1510 | 830 | 3800 | 2890 | 8.693 | 22.73
7 | CC(=O)O[C@H]1C[C@@H](OC(C)=O)C(C)(C)[C@@H]2C[C@@H](OC(C)=O)[C@]3(C)[C@H]([C@H](OC(C)=O)C[C@@]4(C)[C@H](c5ccoc5)OC(=O)[C@H]5O[C@@]534)[C@@]12C | 871 | 480 | 3980 | 3050 | 20.57 | 46.1
8 | CC(=O)O[C@@H]1C[C@@]2(C)[C@H](c3ccoc3)C[C@H]3O[C@]32[C@]2(C)C(=O)C(O)=C3C(C)(C)C(=O)C=C[C@]3(C)C12 (stereo partly specified) [ANTHOTHECOL] | 3020 | 1650 | 3470 | 2640 | 20.37 | 12.42
9 | CC(=O)Oc1c2c(c(CC=C(C)C)c3c1C(=O)C1=C[C@@H]4CC5C(C)(C)OC(C/C=C(\C)C(=O)O)(C4=O)[C@@]15O3)OC(C)(CCC=C(C)C)C=C2 (stereo partly specified) [ACETYL ISOGAMBOGIC ACID] | 4070 | 2240 | 5370 | 4170 | 10.38 | 30.34
10 | CCCCC/C=C\C/C=C\C/C=C\C/C=C\CCCC(=O)O [ARACHIDONIC ACID] | 603 | 330 | 1070 | 820 | 23.4 | 5.402
11 | CCCCCCCCCc1ccc(OCCOCCOCCOCCOCCOCCOCCOCCOCCO)cc1 [NONOXYNOL 9] | 3470 | 1920 | 3720 | 2870 | 32.74 | 27.96
12 | COC(=O)/C(C)=C\CC12OC(C)(C)C3CC(C=C4C(=O)c5c(OC)c6c(c(CC=C(C)C)c5OC431)OC(C)(CCC=C(C)C)C=C6)C2=O (stereo unspecified) [DIMETHYL GAMBOGATE] | 2290 | 1260 | 5130 | 3940 | 23.19 | 62.06
13 | CC(=O)O[C@@H]1CC[C@]2(C)[C@H](C[C@@H](OC(C)=O)[C@]3(C)C4=CC(=O)O[C@H](c5ccoc5)[C@@]4(C)CC[C@@H]23)C1(C)C | 813 | 440 | 1410 | 1080 | 18.95 | 8.019

Continued, values first:

Row | IC50 [1] [nM] | Ki [2] [nM] | IC50 [3] [nM] | Ki [4] [nM] | residual activity [5] [%] | residual activity [6] [%] | Compound
14 | 3310 | 1820 | 5250 | 4020 | 25.14 | 17.42 | C[C@@H]1O[C@H](O[C@@H]2[C@@H](O)[C@H](O[C@@H]3[C@@H](O)[C@@H](O)[C@@H](O[C@H]4[C@@H](OC(=O)[C@]56CCC(C)(C)C[C@@H]5C5=CC[C@@H]7[C@@]8(C)CC[C@H](O[C@@H]9O[C@H](CO)[C@@H](O)[C@H](O)[C@H]9O)C(C)(C)[C@@H]8CC[C@@]7(C)[C@]5(C)C[C@H]6O)OC[C@@H](O)[C@@H]4O)O[C@H]3C)OC[C@H]2O)[C@H](O)[C@H](O)[C@H]1O
15 | 145 | 80 | 2400 | 1840 | 7.804 | 14.63 | COC(=O)c1c(C)c2c(c(C)c1O)OC(=O)c1c(C)c(Cl)c(O)c(Cl)c1O2 [LEOIDIN]
16 | 977 | 540 | 2950 | 2270 | 14.28 | 9.535 | CC(=O)O[C@H]1C[C@@H](OC(C)=O)C(C)(C)[C@@H]2C[C@@H](O)[C@@]3(C)[C@H](CC[C@]4(C)[C@@H](c5ccoc5)OC(=O)[C@H]5O[C@@]534)[C@@]12C
17 | 1150 | 630 | 550 | 420 | 10.9 | 1.823 | Cc1cc(O)c(C=O)c2c1C(=O)Oc1c(C)c(O)c3c(c1O2)C(O)OC3=O (stereo unspecified) [NORSTICTIC ACID]
18 | 692 | 380 | 692 | 530 | 7.307 | 5.392 | COC(=O)C[C@H]1C2(C)CC34OC5(C)O[C@@]6([C@H](OC(C)=O)C(OC(C)=O)[C@]7(C)C(/C(=C(/O)C(C)C)C(=O)O[C@H]7c7ccoc7)[C@@]6(O5)[C@H](OC(C)=O)[C@@]3(O)C2OC(=O)C(C)C)[C@]14C (stereo partly specified) [BUSSEIN]
19 | 2630 | 1430 | 4070 | 3150 | 4.068 | 20.35 | O=C1C=CC(=C(c2ccc(O)cc2)c2ccc(O)cc2)C=C1 [AURIN]
20 | 724 | 400 | 1620 | 1250 | 18.31 | 7.572 | CCCCCc1c2c(cc(O)c1C(=O)O)OC(=O)c1c(cc(OC)cc1C(=O)CCCC)O2 [LOBARIC ACID]
21 | 3550 | 1940 | 7760 | 5990 | 22.81 | 54.65 | CC(=O)O[C@@H]1C[C@H]2C(C)(C)C(=O)CC[C@]2(C)[C@H]2CC[C@]3(C)C(=CC(=O)O[C@H]3c3ccoc3)[C@@]21C
